Measurements taken from US20170304306A1, “SELECTIVE NaV1.7 INHIBITORS FOR THE TREATMENT OF DIABETES” (CHROMOCELL CORPORATION, priority 2014, published 2017).

What was measured:
NaV1.1 = target: T1, NaV1.1 (Homo sapiens, UniProt P35498); assay: Patchliner electrophysiological in-vitro assay, NaV1.1; type: cell-based; settings: Patchliner patch clamp, CHO cells
T1 construct: expressed in transfected cells; host or cells: CHO
Experimental: (§1) In vitro assays were performed in recombinant cell line that stably express a heterotrimeric protein of interest from an introduced nucleic acid encoding the alpha subunit (hNav1.7, SCN9A), the beta subunit (SCNB1) and the beta subunit (SCNB2). The cell line was engineered using Human Embryonic Kidney 293 cells (HEK293) as host background. Additional cell lines stably expressing recombinant human NaVs (e.g., NaV1.1, NaV1.2, NaV1.3, NaV1.4, NaV1.5, NaV1.6, NaV1.7 or NaV1.8) alpha subunit alone or in combination with various beta subunits in Chinese Hamster Ovary (CHO) or HEK293 cells as a host background can also be used in in vitro assays.
(§2) The recording of sodium current from stable HEK293 cell lines expressing NaV1.7 or NaV1.5 or CHO cell lines expressing NaV1.1, NaV1.2, NaV1.3, NaV1.4, NaV1.6 or NaV1.8 was done on a Patchliner® instrument, Nanion Technologies. […]
(§3) Voltage protocols were designed to establish: 1) peak current amplitude (Imax), 2) test potential (Vmax) and 3) half-inactivation potential (V1/2) for each of the eight individual cells. […] To estimate test compound affinity to the inactivated state of sodium channel (Ki), the holding potential for each cell was set automatically to the V1/2 calculated from a steady-state inactivation data. […] The dose-dependent inhibition was analyzed using Nanion's Data Analysis Package.

NaV1.8 = target: T2, NaV1.8 (Homo sapiens, UniProt Q9Y5Y9); assay: Patchliner electrophysiological in-vitro assay, NaV1.8; type: cell-based; settings: Patchliner patch clamp, CHO cells
T2 construct: expressed in transfected cells; host or cells: CHO
Experimental: as §1, §2, §3

NaV1.4 = target: T3, NaV1.4 (Homo sapiens, UniProt P35499); assay: Patchliner electrophysiological in-vitro assay, NaV1.4; type: cell-based; settings: Patchliner patch clamp, CHO cells
T3 construct: expressed in transfected cells; host or cells: CHO
T3 sequence (P35499 whole entry): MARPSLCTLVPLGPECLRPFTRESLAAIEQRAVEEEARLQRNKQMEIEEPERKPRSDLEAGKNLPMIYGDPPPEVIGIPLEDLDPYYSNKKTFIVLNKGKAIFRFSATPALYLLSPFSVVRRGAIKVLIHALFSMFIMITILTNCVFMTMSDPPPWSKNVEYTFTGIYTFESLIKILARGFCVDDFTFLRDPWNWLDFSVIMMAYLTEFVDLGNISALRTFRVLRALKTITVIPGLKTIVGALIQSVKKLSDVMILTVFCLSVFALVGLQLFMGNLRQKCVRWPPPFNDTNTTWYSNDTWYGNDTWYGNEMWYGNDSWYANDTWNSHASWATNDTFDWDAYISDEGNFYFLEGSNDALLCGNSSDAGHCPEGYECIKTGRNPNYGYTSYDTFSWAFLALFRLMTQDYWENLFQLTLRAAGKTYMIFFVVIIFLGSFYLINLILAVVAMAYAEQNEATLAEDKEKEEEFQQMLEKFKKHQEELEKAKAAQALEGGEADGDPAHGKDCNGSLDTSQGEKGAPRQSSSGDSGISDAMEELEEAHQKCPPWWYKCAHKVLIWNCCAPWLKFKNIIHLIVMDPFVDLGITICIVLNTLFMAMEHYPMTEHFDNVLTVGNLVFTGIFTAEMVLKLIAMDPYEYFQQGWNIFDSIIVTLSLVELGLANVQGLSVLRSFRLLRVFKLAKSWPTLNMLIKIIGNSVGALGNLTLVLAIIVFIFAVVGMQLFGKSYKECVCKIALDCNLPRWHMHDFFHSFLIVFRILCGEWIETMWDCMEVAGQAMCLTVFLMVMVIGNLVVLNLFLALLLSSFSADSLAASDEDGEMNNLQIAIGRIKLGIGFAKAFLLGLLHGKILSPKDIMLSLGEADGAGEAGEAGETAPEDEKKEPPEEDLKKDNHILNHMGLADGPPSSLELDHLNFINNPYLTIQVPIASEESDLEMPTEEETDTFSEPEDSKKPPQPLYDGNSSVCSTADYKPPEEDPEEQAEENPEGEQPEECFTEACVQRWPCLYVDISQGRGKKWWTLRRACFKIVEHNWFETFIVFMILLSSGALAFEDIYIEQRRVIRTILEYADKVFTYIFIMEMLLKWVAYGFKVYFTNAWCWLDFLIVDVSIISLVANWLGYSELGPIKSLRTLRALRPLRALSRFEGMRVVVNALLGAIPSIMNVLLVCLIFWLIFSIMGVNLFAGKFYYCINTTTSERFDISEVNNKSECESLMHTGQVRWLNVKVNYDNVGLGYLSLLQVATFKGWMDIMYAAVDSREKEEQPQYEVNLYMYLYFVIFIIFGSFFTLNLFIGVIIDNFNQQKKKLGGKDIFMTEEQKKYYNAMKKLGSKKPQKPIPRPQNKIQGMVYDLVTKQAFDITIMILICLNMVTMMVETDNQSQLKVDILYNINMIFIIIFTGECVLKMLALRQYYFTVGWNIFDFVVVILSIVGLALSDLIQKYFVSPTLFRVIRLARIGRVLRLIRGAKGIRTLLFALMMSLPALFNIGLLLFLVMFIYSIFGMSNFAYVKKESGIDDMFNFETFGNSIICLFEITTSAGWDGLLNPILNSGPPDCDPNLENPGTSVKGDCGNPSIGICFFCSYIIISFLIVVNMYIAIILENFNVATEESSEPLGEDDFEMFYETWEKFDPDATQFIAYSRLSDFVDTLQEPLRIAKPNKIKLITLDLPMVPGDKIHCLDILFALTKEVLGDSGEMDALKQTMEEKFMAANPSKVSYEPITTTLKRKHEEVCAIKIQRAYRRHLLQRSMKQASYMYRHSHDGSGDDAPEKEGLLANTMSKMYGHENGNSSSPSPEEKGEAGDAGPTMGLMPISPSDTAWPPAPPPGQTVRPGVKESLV
Experimental: as §1, §2, §3

NaV1.3 [1] = target: T4, NaV1.3 (Homo sapiens, UniProt Q9NY46); assay: Patchliner electrophysiological in-vitro assay, NaV1.3; type: cell-based; design: expressed in transfected cells; host or cells: CHO; settings: Patchliner patch clamp, CHO cells; read-out: NaV 1.3 IC50
Experimental: as §1, §2, §3

NaV1.5 = target: T5, NaV1.5 (Homo sapiens, UniProt Q14524); assay: Patchliner electrophysiological in-vitro assay, NaV1.5; type: cell-based; settings: Patchliner patch clamp, HEK293 cells
T5 construct: expressed in transfected cells; host or cells: HEK293
T5 sequence (Q14524 whole entry): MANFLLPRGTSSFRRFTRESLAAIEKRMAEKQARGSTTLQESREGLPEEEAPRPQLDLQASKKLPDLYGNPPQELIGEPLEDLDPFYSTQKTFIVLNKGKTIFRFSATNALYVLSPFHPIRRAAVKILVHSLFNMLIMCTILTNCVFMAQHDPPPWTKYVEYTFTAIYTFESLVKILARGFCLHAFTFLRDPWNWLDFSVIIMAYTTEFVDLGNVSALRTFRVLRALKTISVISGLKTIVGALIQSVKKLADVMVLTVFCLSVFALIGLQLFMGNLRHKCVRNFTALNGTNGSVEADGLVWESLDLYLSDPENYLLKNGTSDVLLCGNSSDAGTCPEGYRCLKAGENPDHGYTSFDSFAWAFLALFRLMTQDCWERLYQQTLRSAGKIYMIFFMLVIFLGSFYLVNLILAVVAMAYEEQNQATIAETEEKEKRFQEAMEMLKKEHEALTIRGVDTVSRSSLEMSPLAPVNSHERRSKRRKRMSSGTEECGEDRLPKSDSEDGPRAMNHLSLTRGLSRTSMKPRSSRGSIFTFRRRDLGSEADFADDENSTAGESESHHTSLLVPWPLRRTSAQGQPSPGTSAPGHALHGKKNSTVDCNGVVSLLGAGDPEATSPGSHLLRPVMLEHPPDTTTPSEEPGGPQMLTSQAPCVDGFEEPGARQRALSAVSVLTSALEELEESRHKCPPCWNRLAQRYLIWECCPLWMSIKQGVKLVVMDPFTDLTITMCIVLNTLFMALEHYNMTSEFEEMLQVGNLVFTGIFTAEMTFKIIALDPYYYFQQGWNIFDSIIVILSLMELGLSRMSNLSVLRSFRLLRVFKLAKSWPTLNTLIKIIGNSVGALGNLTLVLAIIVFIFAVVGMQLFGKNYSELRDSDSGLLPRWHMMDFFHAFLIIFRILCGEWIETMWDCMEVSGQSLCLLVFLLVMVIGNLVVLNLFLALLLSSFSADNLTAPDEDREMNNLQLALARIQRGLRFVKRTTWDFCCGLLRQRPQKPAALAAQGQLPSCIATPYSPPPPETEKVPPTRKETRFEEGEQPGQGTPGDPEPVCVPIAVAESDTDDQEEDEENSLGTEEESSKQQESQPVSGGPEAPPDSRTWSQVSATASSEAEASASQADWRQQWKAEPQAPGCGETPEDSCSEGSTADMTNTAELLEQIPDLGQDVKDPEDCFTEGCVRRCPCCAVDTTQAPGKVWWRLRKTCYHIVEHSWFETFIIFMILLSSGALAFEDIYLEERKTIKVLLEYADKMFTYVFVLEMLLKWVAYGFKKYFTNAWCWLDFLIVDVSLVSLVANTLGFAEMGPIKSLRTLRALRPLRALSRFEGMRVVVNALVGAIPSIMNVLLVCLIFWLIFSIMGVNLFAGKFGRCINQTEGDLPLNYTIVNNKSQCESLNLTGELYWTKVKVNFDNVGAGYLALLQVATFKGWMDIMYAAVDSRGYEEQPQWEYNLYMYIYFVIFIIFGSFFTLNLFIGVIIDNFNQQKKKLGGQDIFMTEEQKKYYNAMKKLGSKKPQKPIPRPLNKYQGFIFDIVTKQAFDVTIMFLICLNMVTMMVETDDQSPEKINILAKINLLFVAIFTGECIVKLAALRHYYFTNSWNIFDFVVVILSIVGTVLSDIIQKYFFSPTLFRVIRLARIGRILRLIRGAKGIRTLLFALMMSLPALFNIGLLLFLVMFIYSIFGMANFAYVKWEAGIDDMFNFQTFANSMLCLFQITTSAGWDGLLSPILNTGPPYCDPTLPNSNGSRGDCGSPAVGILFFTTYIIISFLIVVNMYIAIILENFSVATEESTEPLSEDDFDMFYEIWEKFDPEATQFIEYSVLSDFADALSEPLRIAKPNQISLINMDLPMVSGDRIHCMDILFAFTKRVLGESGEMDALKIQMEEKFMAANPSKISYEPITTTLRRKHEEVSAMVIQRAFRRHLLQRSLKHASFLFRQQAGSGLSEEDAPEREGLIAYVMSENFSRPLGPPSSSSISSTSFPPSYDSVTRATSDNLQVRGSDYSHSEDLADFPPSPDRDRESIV
Experimental: as §1
The recording of sodium current from stable HEK293 cell lines expressing NaV1.7 or NaV1.5 or CHO cell lines expressing NaV1.1, NaV1.2, NaV1.3, NaV1.4, NaV1.6 or NaV1.8 was done on a Patchliner® instrument, Nanion Technologies. The Patchliner® is a fully automated bench-top patch clamp platform and can record simultaneously from up to eight single cells with GΩ seals.
For patch-clamp experiments, cells were grown under standard culturing conditions in Dulbecco's Modified Eagles medium supplemented with 10% fetal bovine serum, glutamine and HEPES. Cells were harvested and kept in suspension for up to 4 hours with no significant change in quality or ability to patch. Whole cell patch clamp recordings were conducted according to Nanion's standard procedure for the Patchliner®. Experiments were conducted at room temperature.
Voltage protocols were designed to establish: 1) peak current amplitude (Imax), 2) test potential (Vmax) and 3) half-inactivation potential (V1/2) for each of the eight individual cells. To determine V1/2, a standard steady-state inactivation protocol was executed using a series of fifteen 500 ms depolarizing pre-pulses in 10 mV increments (starting at −130 mV) and immediately followed by a 10 ms test pulse to Vmax. To estimate test compound affinity to the inactivated state of sodium channel (Ki), the holding potential for each cell was set automatically to the V1/2 calculated from a steady-state inactivation data. The current was activated with the following voltage protocol: holding at V1/2 for 2-5 seconds, return to the −120 mV for 5-10 ms to relieve fast inactivation, stepping to test potential (Vmax) for 10-20 ms. This voltage protocol was repeated every 10 seconds to establish the baseline with 2-3 buffer additions followed by the test compound addition. The dose-dependent inhibition was analyzed using Nanion's Data Analysis Package.

[2] = test system: streptozotocin-induced diabetic rats; assay: Anti-diabetic effect in rat streptozotocin-induced model for diabetes; type: in vivo, Sprague-Dawley rats; settings: STZ diabetic rats
Experimental: 250-350 g male Sprague-Dawley rats from appropriate animal resources were used. Type I diabetes was induced by a single injection, (intraperitoneally, intravenously or intramuscularly) of 50-100 mg/kg of streptozotocin (STZ, Sigma Chemicals, St. Louis, Mo. or VWR) freshly dissolved in sodium citrate (0.01 M, pH 4.5). Sham animals were given either saline or same vehicle injection. Following a wait time of about two days, inducement of diabetes was confirmed in STZ-injected rats by measuring the plasma glucose concentrations in blood samples from the tail vein after a fast of 6 hours. The glucose level was assayed using a mini glucose monitor (kit for AlphaTRAK 2 meter, available from Abbott Laboratories). Screening for hyperglycemia in STZ-injected animals was done, with only animals with a final blood glucose level ≧300 mg/dl being selected for the study. Glucose levels in the sham animals remained normal. Other parameters (water intake, food intake, and bodyweight) were monitored before the treatment with a test compound and after the cessation of the treatment.
The baseline glucose levels, daily food and water intake and behavioral tests (von Frey, paw pressure and plantar tests) were measured for each animal once weekly for 28 weeks, and once every 2-4 weeks for an additional 28-30 weeks. At a selected week (started from week 6) for a compound test, diabetic rats were divided into two test groups: a vehicle control group and a test compound treated group (n=10 each group). A sham group (saline only without STZ i.p. injection, n=10) was added as a normal, non-diabetic control group. To minimize animal stress associated with repeated daily handling, the compound treated diabetic group of animals received the test compound (compound 49) at a daily dose of 60 mg/kg in their drinking water containing 2% PEG600 and 1% glycofurol (the test compound concentration in the drinking water was based on the individual animal's average daily water consumption as determined the pre-dosing period, which averaged 0.1-0.11 mg/ml). The vehicle control group received drinking water containing 2% PEG600 and 1% glycofurol without the test compound. The treatment continued for 9 days. On day 10 drinking water with test compound or vehicle (2% PEG600 and 1% glycofurol) was replaced with plain drinking water in all groups. The monitoring of glucose levels, food and water intake as well as behavior tests continued for additional 28-30 weeks.

NaV1.3 [3] = target: T4, NaV1.3; assay: Assay similar to Patchliner assay using CHO or HEK293 cell lines expressing NaV1.3; type: cell-based; design: expressed in transfected cells; host or cells: CHO or HEK293
hNaV1.7 = target: T6, hNaV1.7 (Homo sapiens, UniProt Q15858); assay: FDSS membrane potential in-vitro assay; type: cell-based; settings: HEK293 cells expressing hNaV1.7 α, β1 and β2, veratridine and scorpion venom stimulation, read-out: NaV1.7 IC50
T6 construct: expressed in transfected cells; host or cells: HEK293

NaV1.7 = target: T7, NaV1.7 (Homo sapiens, UniProt Q15858); assay: Patchliner electrophysiological in-vitro assay, NaV1.7; type: cell-based; settings: Patchliner patch clamp, HEK293 cells, holding at V1/2
T7 construct: expressed in transfected cells; host or cells: HEK293
Experimental: as §1, §2, §3

[4] = 60 mg/kg/day in drinking water for 9 days, after treatment stopped, continues through week 52

## O=C(O)CCNC(=O)c1cc(-c2cc(Cl)ccc2Oc2cc(F)c(S(=O)(=O)Nc3ncns3)cc2Cl)ccn1 [Compound 1, 3-(4-(2-(4-(N-(1,2,4-thiadiazol-5-yl)sulfamoyl)-2-chloro-5-fluorophenoxy)-5-chlorophenyl)picolinamido)propanoic acid]
NaV1.1
  IC50: > 10 µM
NaV1.8
  IC50: > 10 µM
NaV1.4
  IC50: > 3 µM
NaV1.3 [1]
  IC50: > 10 µM

## O=C(O)CCNCCCc1cc(Cl)ccc1Oc1cc(F)c(S(=O)(=O)Nc2nccs2)cc1F [Compound 43, 3-((3-(5-chloro-2-(2,5-difluoro-4-(N-(thiazol-2-yl)sulfamoyl)phenoxy)phenyl)propyl)amino)propanoic acid]
NaV1.5
  IC50: > 10 µM

## CN(CCCc1cc(Cl)ccc1Oc1cc(F)c(S(=O)(=O)Nc2cscn2)cc1Cl)CC(=O)O [Compound 47, 2-((3-(5-chloro-2-(2-chloro-5-fluoro-4-(N-(thiazol-4-yl)sulfamoyl)phenoxy)phenyl)propyl)(methyl)amino)acetic acid]
NaV1.5
  IC50: > 10 µM

## NC(=O)CNCCCc1cc(Cl)ccc1Oc1cc(F)c(S(=O)(=O)Nc2cscn2)cc1Cl [Compound 49, 2-((3-(5-chloro-2-(2-chloro-5-fluoro-4-(N-(thiazol-4-yl)sulfamoyl)phenoxy)phenyl)propyl)amino)acetamide]
NaV1.1
  IC50: > 10 µM
NaV1.8
  IC50: > 10 µM
NaV1.4
  IC50: > 3 µM
[2]; 60 mg/kg/day for 9 days, after treatment stopped on day 9
  general appearance and/or health: improvements in general appearance and/or health
[2]; [4]
  food intake compared to the vehicle control group: significantly reduced
  glucose level compared to the vehicle control group: significantly reduced
  water intake compared to the vehicle control group: significantly reduced
NaV1.3 [3]
  IC50: > 10 µM

## C#CCN(CCCc1cc(Cl)ccc1Oc1cc(F)c(S(=O)(=O)Nc2nccs2)cc1Cl)CC(=O)O [Compound 54, 2-((3-(5-chloro-2-(2-chloro-5-fluoro-4-(N-(thiazol-2-yl)sulfamoyl)phenoxy)phenyl)propyl)(prop-2-yn-1-yl)amino)acetic acid]
hNaV1.7
  IC50: < 0.1 µM
NaV1.7
  IC50: < 0.1 µM
NaV1.5
  IC50: > 10 µM

## CS(=O)(=O)CCNCCCc1cc(Cl)ccc1Oc1cc(F)c(S(=O)(=O)Nc2nccs2)cc1Cl [Compound 59, 5-chloro-4-(4-chloro-2-(3-((2-(methylsulfonyl)ethyl)amino)propyl)phenoxy)-2-fluoro-N-(thiazol-2-yl)benzenesulfonamide]
NaV1.5
  IC50: > 10 µM

## NC(=O)CNCCCc1ccccc1Oc1cc(F)c(S(=O)(=O)Nc2cscn2)cc1Cl [Compound 60, 2-((3-(2-(2-chloro-5-fluoro-4-(N-(thiazol-4-yl)sulfamoyl)phenoxy)phenyl)propyl)amino)acetamide]
NaV1.5
  IC50: > 10 µM

## C#CCN(CCCc1cc(Cl)ccc1Oc1cc(F)c(S(=O)(=O)Nc2cscn2)cc1Cl)CC(=O)O [Compound 61, 2-((3-(5-chloro-2-(2-chloro-5-fluoro-4-(N-(thiazol-4-yl)sulfamoyl)phenoxy)phenyl)propyl)(prop-2-yn-1-yl)amino)acetic acid]
NaV1.5
  IC50: > 10 µM

## C=CCN(CCCc1cc(Cl)ccc1Oc1cc(F)c(S(=O)(=O)Nc2nccs2)cc1Cl)CC(=O)O [Compound 62, 2-(allyl(3-(5-chloro-2-(2-chloro-5-fluoro-4-(N-(thiazol-2-yl)sulfamoyl)phenoxy)phenyl)propyl)amino)acetic acid]
NaV1.5
  IC50: > 10 µM

## NC(=O)CNCCCc1cc(Cl)ccc1Oc1cc(F)c(S(=O)(=O)Nc2nccs2)cc1Cl [Compound 63, 2-((3-(5-chloro-2-(2-chloro-5-fluoro-4-(N-(thiazol-2-yl)sulfamoyl)phenoxy)phenyl)propyl)amino)acetamide]
NaV1.5
  IC50: > 10 µM

## CCCN(CCCc1cc(Cl)ccc1Oc1cc(F)c(S(=O)(=O)Nc2nccs2)cc1Cl)CC(=O)O [Compound 65, 2-((3-(5-chloro-2-(2-chloro-5-fluoro-4-(N-(thiazol-2-yl)sulfamoyl)phenoxy)phenyl)propyl)(propyl)amino)acetic acid]
NaV1.5
  IC50: > 10 µM

## C#CCN(CCCc1cc(Cl)ccc1Oc1cc(F)c(S(=O)(=O)Nc2nccs2)cc1Cl)CCC(=O)O [Compound 66, 3-((3-(5-chloro-2-(2-chloro-5-fluoro-4-(N-(thiazol-2-yl)sulfamoyl)phenoxy)phenyl)propyl)(prop-2-yn-1-yl)amino)propanoic acid]
NaV1.5
  IC50: > 10 µM
